# Literature values as cited in US20110189281A1, “TELMISARTAN AND HYDROCHLOROTHIAZIDE COMBINATION THERAPY” (BOEHRINGER INGELHEIM INTERNATIONAL GMBH, priority 2004, published 2011).
# Conditions: physiological pH range of the gastrointestinal tract, pH 1 to 7; free acid form
structure (smiles),measurement,value
"CCCc1nc2c(C)cc(-c3nc4ccccc4n3C)cc2n1Cc1ccc(-c2ccccc2C(=O)O)cc1 [Telmisartan, 4′-[(1,4′-dimethyl-2′-propyl-[2,6′-bi-1H-benzimidazol]-1′-yl)methyl]-[1,1′-biphenyl]-2-carboxylic acid]",Solubility in aqueous systems,very poor solubility
